From patent publication US10266526B2, “Substituted 1,2,3-triazoles as SMYD inhibitors for treating cancer” (EPIZYME, INC., priority 2014, dated 2019) come the findings set out here.

Sequence of SMYD3 (Q9H7B4 whole entry): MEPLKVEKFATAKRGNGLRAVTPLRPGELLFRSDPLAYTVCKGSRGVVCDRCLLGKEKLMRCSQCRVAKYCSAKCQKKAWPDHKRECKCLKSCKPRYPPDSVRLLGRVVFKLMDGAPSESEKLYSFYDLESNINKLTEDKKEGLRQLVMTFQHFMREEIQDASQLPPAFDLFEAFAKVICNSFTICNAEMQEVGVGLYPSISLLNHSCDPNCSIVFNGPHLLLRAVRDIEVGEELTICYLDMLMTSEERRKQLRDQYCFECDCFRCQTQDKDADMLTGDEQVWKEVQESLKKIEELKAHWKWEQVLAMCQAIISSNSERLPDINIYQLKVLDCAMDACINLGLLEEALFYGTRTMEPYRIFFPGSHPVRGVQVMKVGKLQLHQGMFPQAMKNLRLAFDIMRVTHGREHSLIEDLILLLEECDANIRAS

In the first experiment the target is SMYD3 (Homo sapiens (Human), UniProt Q9H7B4). The experiment is described as follows: SMYD3 biochemical assay (SMYD3 enzyme assay on MEKK2 protein substrate, 3H-SAM scintillation proximity assay). The conditions noted are these: Table 1A; average of n = 1 to n = 50; read-out: SMYD3 Biochem IC50. A digest of the protocol:
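Native full-length human SMYD3, expressed in E. coli, was preincubated with compound for 30 min at room temperature in 25 mM Tris-Cl pH 8.0, 1 mM TCEP, 0.005% BSG and 0.005% Tween 20. ³H-SAM plus GST-MEKK2 then started the reaction. It was stopped with unlabeled SAM (100 uM final), and methylated MEKK2 was read by SPA.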
On the technique in general: Scintillation proximity formats need no separation of bound from free tracer.
With `NCCC(=O)N[C@H]1CC[C@H](NC(=O)c2nnc[nH]2)CC1` [compound 525, N-((1r,4r)-4-(3-aminopropanamido)cyclohexyl)-4H-1,2,4-triazole-3-carboxamide], the IC50 (in general, the concentration that gives 50% inhibition) was > 50 µM.

For `NCCC(=O)N[C@H]1CC[C@H](NC(=O)c2cc(Cl)[nH]n2)CC1` [compound 528, N-((1r,4r)-4-(3-aminopropanamido)cyclohexyl)-5-chloro-1H-pyrazole-3-carboxamide], the 50% inhibitory concentration (IC50) was > 50 µM.

For the compound `NCCC(=O)N[C@H]1CC[C@H](NC(=O)c2c[nH]cn2)CC1` [compound 537, N-((1r,4r)-4-(3-aminopropanamido)cyclohexyl)-1H-imidazole-4-carboxamide], the IC50 was > 50 µM.

The same experiment, now with this note: read-out: SMYD3 Biochem IC50.
As to `NCCC(=O)N[C@H]1CC[C@H](NC(=O)c2ccc3c(c2)CCCC3)CC1` [compound 203, N-((1r,4r)-4-(3-aminopropanamido)cyclohexyl)-5,6,7,8-tetrahydronaphthalene-2-carboxamide], the IC50 came out at 11.2 µM.

For the compound `NCCC(=O)N[C@H]1CC[C@H](NC(=O)c2cc3cccc(O)c3cc2O)CC1` [compound 479, N-((1r,4r)-4-(3-aminopropanamido)cyclohexyl)-3,5-dihydroxy-2-naphthamide], the IC50 is 5.02 µM.

Consider `N[C@H]1CC[C@H](NC(=O)c2ccc(O)cn2)CC1` [compound 423, N-((1r,4r)-4-aminocyclohexyl)-5-hydroxypicolinamide], for which the IC50 was > 100 µM.

Take `Cc1cccc(Cn2nc(C(C)(C)C)cc2C(=O)NC(C)C2CCN(C(=O)[C@H](C)N)CC2)c1` (stereo partly drawn) [compound 299, N-(1-(1-(L-alanyl)piperidin-4-yl)ethyl)-3-(tert-butyl)-1-(3-methylbenzyl)-1H-pyrazole-5-carboxamide]: the IC50 is > 100 µM.

For `NCCC(=O)N[C@H]1CC[C@H](NC(=O)c2cccc3[nH]ccc23)CC1` [compound 290, N-((1r,4r)-4-(3-aminopropanamido)cyclohexyl)-1H-indole-4-carboxamide], the IC50 was > 100 µM.

With `N[C@H]1CC[C@H](NC(=O)c2ncccn2)CC1` [compound 269, N-((1r,4r)-4-aminocyclohexyl)pyrimidine-2-carboxamide], the IC50 was > 100 µM.

On to `N[C@H]1CC[C@H](NC(=O)c2cccc3c2CC(=O)N3)CC1` [compound 400, N-((1r,4r)-4-aminocyclohexyl)-2-oxoindoline-4-carboxamide], for which the 50% inhibitory concentration (IC50) is > 100 µM.

On to `Cc1ccncc1C(=O)NC(C)C1CCN(C(=O)[C@H](C)N)CC1` (stereo partly drawn) [compound 255, N-(1-(1-(L-alanyl)piperidin-4-yl)ethyl)-4-methylnicotinamide], for which the IC50 was 73.4 µM.

`NCCC(=O)N[C@H]1CC[C@H](NC(=O)c2cncs2)CC1` [compound 442, N-((1r,4r)-4-(3-aminopropanamido)cyclohexyl)thiazole-5-carboxamide]: the IC50 was > 100 µM.

Regarding `NCCC(=O)N[C@H]1CC[C@H](NC(=O)c2ccc(N)cn2)CC1` [compound 437, 5-amino-N-((1r,4r)-4-(3-aminopropanamido)cyclohexyl)picolinamide], the IC50 is > 100 µM.

For the compound `CC(NC(=O)c1ccc(O)cn1)C1CCN(C(=O)[C@H](C)N)CC1` (stereo partly drawn) [compound 310, N-(1-(1-(L-alanyl)piperidin-4-yl)ethyl)-5-hydroxypicolinamide], the IC50 is > 100 µM.

Take `N[C@H]1CC[C@H](NC(=O)c2ccc(-n3cnnc3)cc2)CC1` [compound 278, N-((1r,4r)-4-aminocyclohexyl)-4-(4H-1,2,4-triazol-4-yl)benzamide]: the IC50 is > 100 µM.

Turning to `N[C@H]1CC[C@H](NC(=O)Cc2c[nH]c3cccnc23)CC1` [compound 408, N-((1r,4r)-4-aminocyclohexyl)-2-(1H-pyrrolo[3,2-b]pyridin-3-yl)acetamide], the IC50 is > 100 µM.

For the compound `NCCC(=O)N[C@H]1CC[C@H](NC(=O)c2noc(C3CC3)n2)CC1` [compound 485, N-((1r,4r)-4-(3-aminopropanamido)cyclohexyl)-5-cyclopropyl-1,2,4-oxadiazole-3-carboxamide], the concentration for half-maximal inhibition (IC50) came to 12.9 µM.

With `CC(NC(=O)c1ccc2c(c1)OC(F)(F)O2)C1CCN(C(=O)[C@H](C)N)CC1` (stereo partly drawn) [compound 284, N-(1-(1-(L-alanyl)piperidin-4-yl)ethyl)-2,2-difluorobenzo[d][1,3]dioxole-5-carboxamide], the IC50 is > 100 µM.

For `N[C@H]1CC[C@H](NC(=O)c2c[nH]c3ccccc23)CC1` [compound 360, N-((1r,4r)-4-aminocyclohexyl)-1H-indole-3-carboxamide], the IC50 is > 100 µM.

For the compound `NCCC(=O)N[C@H]1CC[C@H](NC(=O)c2ccc(N)nc2)CC1` [compound 388, 6-amino-N-((1r,4r)-4-(3-aminopropanamido)cyclohexyl)nicotinamide], the concentration for half-maximal inhibition (IC50) is > 100 µM.

In the case of `Cc1cc(C)c(C(=O)N[C@H]2CC[C@H](NC(=O)CCN)CC2)c(=O)[nH]1` [compound 402, N-((1r,4r)-4-(3-aminopropanamido)cyclohexyl)-4,6-dimethyl-2-oxo-1,2-dihydropyridine-3-carboxamide], the IC50 was > 100 µM.

As for `CC(NC(=O)c1cncs1)C1CCN(C(=O)[C@H](C)N)CC1` (stereo partly drawn) [compound 309, N-(1-(1-(L-alanyl)piperidin-4-yl)ethyl)thiazole-5-carboxamide], the IC50 was > 100 µM.

As to `N[C@H]1CC[C@H](NC(=O)c2cccc(F)n2)CC1` [compound 389, N-((1r,4r)-4-aminocyclohexyl)-6-fluoropicolinamide], the IC50 is > 100 µM.

In the case of `NCCC(=O)N[C@H]1CC[C@H](NC(=O)c2ccc3ncsc3c2)CC1` [compound 281, N-((1r,4r)-4-(3-aminopropanamido)cyclohexyl)benzo[d]thiazole-6-carboxamide], the IC50 amounted to 29 µM.

`N[C@H]1CC[C@H](NC(=O)c2ccc(O)nc2)CC1` [compound 295, N-((1r,4r)-4-aminocyclohexyl)-6-hydroxynicotinamide]: the IC50 is > 100 µM.

As for `NCCC(=O)N[C@H]1CC[C@H](NC(=O)c2ccc3cc[nH]c3c2)CC1` [compound 272, N-((1r,4r)-4-(3-aminopropanamido)cyclohexyl)-1H-indole-6-carboxamide], the IC50 came to 37.2 µM.

The experiment is the same for the next values; noted with them: read-out: SMYD3 Biochem IC50 (μM)*.
On to `CCS(=O)(=O)C(C)C(=O)N[C@H]1CC[C@H](N)CC1` (stereo partly shown) [compound 78, N-((1r,4r)-4-aminocyclohexyl)-2-(ethylsulfonyl)propanamide], for which the IC50 was 35.2 µM.

With `CS(=O)(=O)c1cccc(C(=O)N[C@H]2CC[C@H](NC(=O)CCN)CC2)c1` [compound 150, N-((1r,4r)-4-(3-aminopropanamido)cyclohexyl)-3-(methylsulfonyl)benzamide], the IC50 was > 100 µM.

On to `N[C@H]1CC[C@H](NC(=O)c2ccc3nc(O)cnc3c2)CC1` [compound 43, N-((1r,4r)-4-aminocyclohexyl)-2-hydroxyquinoxaline-6-carboxamide], for which the concentration for half-maximal inhibition (IC50) was 60.4 µM.

For the compound `CCC(=O)c1c[nH]c(C(=O)Nc2ccc(CN)cc2)c1` [compound 52, N-(4-(aminomethyl)phenyl)-4-propionyl-1H-pyrrole-2-carboxamide], the IC50 was 108 µM.

Turning to `CC(NC(=O)c1ncccn1)C1CCN(C(=O)[C@H](C)N)CC1` (stereo partly drawn) [compound 144, N-(1-(1-(L-alanyl)piperidin-4-yl)ethyl)pyrimidine-2-carboxamide], the IC50 is > 100 µM.

Take `CCc1ccnc(C(=O)N[C@H]2CC[C@H](N)CC2)c1` [compound 38, N-((1r,4r)-4-aminocyclohexyl)-4-ethylpicolinamide]: the IC50 was 20.5 µM.

Turning to `N[C@@H](Cc1ccc(O)cc1)C(=O)N1CCC(CNC(=O)c2ccc3c(c2)CC(=O)N3)CC1` [compound 102, N-((1-(L-tyrosyl)piperidin-4-yl)methyl)-2-oxoindoline-5-carboxamide], the IC50 came to 1.86 µM.

Take `NCCC(=O)N[C@H]1CC[C@H](NC(=O)c2ccncc2)CC1` [compound 139, N-((1r,4r)-4-(3-aminopropanamido)cyclohexyl)isonicotinamide]: the IC50 was > 100 µM.

Consider `N[C@H]1CC[C@H](NC(=O)c2ccc3c(c2)CC(=O)N3)CC1` [compound 40, N-((1r,4r)-4-aminocyclohexyl)-2-oxoindoline-5-carboxamide], for which the IC50 amounted to 2.84 µM.

As for `CCn1cnc(C(=O)N[C@H]2CC[C@H](N)CC2)c1` [compound 15, N-((1r,4r)-4-aminocyclohexyl)-1-ethyl-1H-imidazole-4-carboxamide], the IC50 amounted to 56.6 µM.

Take `CN1C(=O)Cc2ccc(C(=O)NC3CCN(C(=O)[C@@H](N)Cc4ccc(O)cc4)CC3)cc21` [compound 88, N-(1-(L-tyrosyl)piperidin-4-yl)-1-methyl-2-oxoindoline-6-carboxamide]: the IC50 came out at 193 µM.

Take `CS(=O)(=O)c1cccc(C(=O)N[C@H]2CC[C@H](N)CC2)c1` [compound 151, N-((1r,4r)-4-aminocyclohexyl)-3-(methylsulfonyl)benzamide]: the IC50 was > 100 µM.

Consider `CC(=O)Nc1ccc(S(=O)(=O)N2CCC(NC(=O)c3cn(C4CC4)nn3)CC2)cc1` [compound 10, N-(1-((4-acetamidophenyl)sulfonyl)piperidin-4-yl)-1-cyclopropyl-1H-1,2,3-triazole-4-carboxamide], for which the IC50 was found to be 17 µM.

`Nc1cc(C(=O)NC(c2ccccc2)C2CCNCC2)n[nH]1` (stereo not shown) [compound 45, 5-amino-N-(phenyl(piperidin-4-yl)methyl)-1H-pyrazole-3-carboxamide]: the IC50 is 137 µM.

In the case of `C[C@@H](N)C(=O)N1CC[C@@H](CNC(=O)c2ccc3c(c2)CC(=O)N3)C1` [compound 133, N-(((S)-1-(D-alanyl)pyrrolidin-3-yl)methyl)-2-oxoindoline-5-carboxamide], the IC50 came out at 10.7 µM.

For the compound `CC(CC(=O)N[C@H]1CC[C@H](N)CC1)C1CC1` (stereo partly shown) [compound 62, N-((1r,4r)-4-aminocyclohexyl)-3-cyclopropylbutanamide], the 50% inhibitory concentration (IC50) came to 155 µM.

`N[C@H]1CC[C@H](NC(=O)c2cncc(Br)c2)CC1` [compound 116, N-((1r,4r)-4-aminocyclohexyl)-5-bromonicotinamide]: the IC50 came to 51 µM.
